According to patent US9783485B1, “Crystalline inhibitor of 4-hydroxyphenylpyruvate dioxygenase, and a process of synthesis and crystallization thereof” (Dipharma S.A., priority 2016, dated 2017):

Experiment: Stability studies of nitisinone obtained through the process of the invention (storage; appearance, KF water, HPLC assay, impurities by HPLC and HPLC/MS)
Type: physicochemical
Source text: When referring to purity determined by HPLC techniques, said chromatograms are gathered at a wavelength of 235 nm. […] The presence of impurity-4 was checked by reverse HPLC/MS using the method described in the table underneath. [table] [table]

With O=C1CCCC(=O)C1C(=O)c1ccc(C(F)(F)F)cc1[N+](=O)[O-] [nitisinone, 2-(2-nitro-4-trifluoromethylbenzoyl)-1,3-cyclohexanedione] the “stability (in words)” value (even in accelerated conditions, period of at least six months) was “extremely stable” and the “impurity-4 content (in words)” value (independently from the storage conditions, reverse HPLC/MS) was “below the limit of quantification”.
